Source: PubChem BioAssay (NCI)
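All cell lines were grown in 96-well plates and treated with compound for 48 hours. TGI: concentration producing complete growth inhibition.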

Columns and labels:
Assay in all cases: NCI-60 cell line screen, 48 h
OVCAR-5 ovarian = tested on: OVCAR-5 ovarian
NCI-H226 lung = tested on: NCI-H226 lung
SNB-75 CNS = tested on: SNB-75 CNS
OVCAR-4 ovarian = tested on: OVCAR-4 ovarian
HOP-92 NSCLC = tested on: HOP-92 NSCLC
UO-31 renal = tested on: UO-31 renal
NCI-H460 lung = tested on: NCI-H460 lung
MCF7 breast = tested on: MCF7 breast
MDA-N = tested on: MDA-N
OVCAR-8 ovarian = tested on: OVCAR-8 ovarian
EKVX NSCLC = tested on: EKVX NSCLC
NCI/ADR-RES ovarian = tested on: NCI/ADR-RES ovarian
MOLT-4 leukemia = tested on: MOLT-4 leukemia
SW-620 colon = tested on: SW-620 colon
LOX IMVI melanoma = tested on: LOX IMVI melanoma
KM12 colon = tested on: KM12 colon
U251 CNS = tested on: U251 CNS
RXF 393 renal = tested on: RXF 393 renal
BT-549 breast = tested on: BT-549 breast
CAKI-1 renal = tested on: CAKI-1 renal
PC-3 prostate = tested on: PC-3 prostate
MALME-3M melanoma = tested on: MALME-3M melanoma
HCC-2998 colon = tested on: HCC-2998 colon
A549 NSCLC = tested on: A549 NSCLC
HT29 colon = tested on: HT29 colon
HS 578T breast = tested on: HS 578T breast
K-562 leukemia = tested on: K-562 leukemia
MDA-MB-231 breast = tested on: MDA-MB-231 breast
UACC-62 melanoma = tested on: UACC-62 melanoma
SF-268 CNS = tested on: SF-268 CNS
786-0 renal = tested on: 786-0 renal
HCT-116 colon = tested on: HCT-116 colon
RPMI-8226 leukemia = tested on: RPMI-8226 leukemia
OVCAR-3 ovarian = tested on: OVCAR-3 ovarian
SF-295 CNS = tested on: SF-295 CNS
DU-145 prostate = tested on: DU-145 prostate
SK-MEL-2 melanoma = tested on: SK-MEL-2 melanoma
CCRF-CEM leukemia = tested on: CCRF-CEM leukemia
COLO 205 colon = tested on: COLO 205 colon
SN12C renal = tested on: SN12C renal
HOP-62 NSCLC = tested on: HOP-62 NSCLC
HCT-15 colon = tested on: HCT-15 colon
TK-10 renal = tested on: TK-10 renal
T-47D breast = tested on: T-47D breast
NCI-H23 lung = tested on: NCI-H23 lung
HL-60(TB) leukemia = tested on: HL-60(TB) leukemia
SK-MEL-5 melanoma = tested on: SK-MEL-5 melanoma
UACC-257 melanoma = tested on: UACC-257 melanoma
SK-OV-3 ovarian = tested on: SK-OV-3 ovarian
SF-539 CNS = tested on: SF-539 CNS
ACHN renal = tested on: ACHN renal
SNB-19 CNS = tested on: SNB-19 CNS

Q: Which TGI (OVCAR-5 ovarian) does the source give for Clc1ccc(C2=NCON=C2c2ccc(Cl)cc2)cc1 here?
A: The TGI was 90.7 µM.

Q: What about the TGI (NCI-H226 lung) of the same compound?
A: The TGI was 32.7 µM.

Q: And the TGI (SNB-75 CNS)?
A: Its TGI is 74.2 µM.

Q: And the TGI (OVCAR-4 ovarian)?
A: The TGI was greater than 100 µM.

Q: What about the TGI (HOP-92 NSCLC) of the same compound?
A: Its TGI is 43.5 µM.

Q: What about the TGI (UO-31 renal) of the same compound?
A: Its TGI is 40.7 µM.

Q: What about the TGI (NCI-H460 lung) of the same compound?
A: The TGI was 40.6 µM.

Q: And the TGI (MCF7 breast)?
A: The TGI was 85.6 µM.

Q: What about the TGI (MDA-N) of the same compound?
A: Its TGI is 56.5 µM.

Q: What about the TGI (OVCAR-8 ovarian) of the same compound?
A: The TGI was 88.7 µM.

Q: And the TGI (EKVX NSCLC)?
A: Its TGI is 45.3 µM.

Q: And the TGI (NCI/ADR-RES ovarian)?
A: Its TGI is 71.2 µM.

Q: And the TGI (MOLT-4 leukemia)?
A: The TGI was 42.9 µM.

Q: And the TGI (SW-620 colon)?
A: Its TGI is 50.1 µM.

Q: What about the TGI (LOX IMVI melanoma) of the same compound?
A: The TGI was 28.3 µM.

Q: And the TGI (KM12 colon)?
A: Its TGI is 39.6 µM.

Q: And the TGI (U251 CNS)?
A: The TGI was 40.1 µM.

Q: What about the TGI (RXF 393 renal) of the same compound?
A: The TGI was 44.8 µM.

Q: What about the TGI (BT-549 breast) of the same compound?
A: The TGI was 41.7 µM.

Q: What about the TGI (CAKI-1 renal) of the same compound?
A: Its TGI is 97.8 µM.

Q: What about the TGI (PC-3 prostate) of the same compound?
A: The TGI was 68.2 µM.

Q: And the TGI (MALME-3M melanoma)?
A: Its TGI is 27.7 µM.

Q: And the TGI (HCC-2998 colon)?
A: Its TGI is 32.7 µM.

Q: And the TGI (A549 NSCLC)?
A: Its TGI is greater than 100 µM.

Q: And the TGI (HT29 colon)?
A: The TGI was 31.1 µM.

Q: And the TGI (HS 578T breast)?
A: The TGI was 36.2 µM.

Q: And the TGI (K-562 leukemia)?
A: Its TGI is 55 µM.

Q: What about the TGI (MDA-MB-231 breast) of the same compound?
A: The TGI was 43.7 µM.

Q: What about the TGI (UACC-62 melanoma) of the same compound?
A: Its TGI is 37.8 µM.

Q: And the TGI (SF-268 CNS)?
A: The TGI was 57.7 µM.

Q: And the TGI (786-0 renal)?
A: The TGI was 42.7 µM.

Q: And the TGI (HCT-116 colon)?
A: Its TGI is 31.3 µM.

Q: What about the TGI (RPMI-8226 leukemia) of the same compound?
A: The TGI was 40.6 µM.

Q: And the TGI (OVCAR-3 ovarian)?
A: Its TGI is 46.6 µM.

Q: What about the TGI (SF-295 CNS) of the same compound?
A: Its TGI is 49.4 µM.

Q: And the TGI (DU-145 prostate)?
A: Its TGI is greater than 100 µM.

Q: And the TGI (SK-MEL-2 melanoma)?
A: The TGI was 46.1 µM.

Q: What about the TGI (CCRF-CEM leukemia) of the same compound?
A: Its TGI is 53.1 µM.

Q: What about the TGI (COLO 205 colon) of the same compound?
A: The TGI was 29.9 µM.

Q: And the TGI (SN12C renal)?
A: The TGI was 35.2 µM.

Q: And the TGI (HOP-62 NSCLC)?
A: The TGI was greater than 100 µM.

Q: And the TGI (HCT-15 colon)?
A: The TGI was 50.6 µM.

Q: What about the TGI (TK-10 renal) of the same compound?
A: Its TGI is 66.3 µM.

Q: What about the TGI (T-47D breast) of the same compound?
A: Its TGI is 22.8 µM.

Q: And the TGI (NCI-H23 lung)?
A: The TGI was 44.3 µM.

Q: And the TGI (HL-60(TB) leukemia)?
A: The TGI was 30.9 µM.

Q: What about the TGI (SK-MEL-5 melanoma) of the same compound?
A: The TGI was 30.3 µM.

Q: What about the TGI (UACC-257 melanoma) of the same compound?
A: Its TGI is 61.4 µM.

Q: And the TGI (SK-OV-3 ovarian)?
A: Its TGI is 47.1 µM.

Q: What about the TGI (SF-539 CNS) of the same compound?
A: The TGI was 35.5 µM.

Q: And the TGI (ACHN renal)?
A: The TGI was 54.9 µM.

Q: What about the TGI (SNB-19 CNS) of the same compound?
A: The TGI was greater than 100 µM.
